Laboratory results published in patent US9670227B2, “Thienopyrimidine derivatives, a process for their preparation and pharmaceutical compositions containing them” (LES LABORATOIRES SERVIER, priority 2013, dated 2017).

These compounds were tested against Mcl-1 protein (UniProtKB primary accession number: Q07820) (Homo sapiens, UniProt Q07820) (assay: Inhibition of Mcl-1 by fluorescence polarisation, Method 1). Conditions: fluorescence polarisation; Method 1, or Method 2; read-out: IC50 (M) Mcl-1 FP.
Sequence of Mcl-1 protein (Q07820 whole entry): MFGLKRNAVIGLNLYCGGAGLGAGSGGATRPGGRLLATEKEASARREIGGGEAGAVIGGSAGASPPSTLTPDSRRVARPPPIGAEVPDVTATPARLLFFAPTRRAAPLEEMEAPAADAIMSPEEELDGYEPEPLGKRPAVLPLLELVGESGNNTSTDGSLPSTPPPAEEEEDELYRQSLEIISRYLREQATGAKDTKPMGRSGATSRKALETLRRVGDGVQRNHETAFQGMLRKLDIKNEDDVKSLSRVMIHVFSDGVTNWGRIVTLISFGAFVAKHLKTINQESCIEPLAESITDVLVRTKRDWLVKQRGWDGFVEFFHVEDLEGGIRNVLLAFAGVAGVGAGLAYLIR
Format: binding
Procedure, shortened: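 FP readout of relative binding potency. Mcl-1 5 nM final, fluorescein-labelled ligand 1 nM final; buffer 10 mM HEPES, 150 mM NaCl, 0.05% Tween 20, pH 7.4; 11-pt dilution series, 5% DMSO final.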
`Cc1nc(-c2sc3ncnc(OC(Cc4ccccc4)C(=O)O)c3c2-c2ccc(OCCN3CCN(C)CC3)c(Cl)c2C)cs1` [Example 515, (2R)-2-{[(5Sa)-5-{3-chloro-2-methyl-4-[2-(4-methylpiperazin-1-yl)ethoxy]phenyl}-6-(2-methyl-1,3-thiazol-4-yl)thieno[2,3-d]pyrimidin-4-yl]oxy}-3-phenylpropanoic acid] showed an IC50 of 8.4e-08 M. For `Cc1ccsc1-c1sc2ncnc(OC(Cc3ccccc3)C(=O)O)c2c1-c1ccc(OCCN2CCN(C)CC2)c(Cl)c1C` [Example 517, (2R)-2-{[(5Sa)-5-{3-chloro-2-methyl-4-[2-(4-methylpiperazin-1-yl)ethoxy]phenyl}-6-(3-methylthiophen-2-yl)thieno[2,3-d]pyrimidin-4-yl]oxy}-3-phenylpropanoic acid], the IC50 was 5.1e-07 M. Compound `CC#Cc1sc2ncnc(OC(Cc3ccccc3)C(=O)O)c2c1-c1ccc(OCCN2CCN(C)CC2)c(Cl)c1C` [Example 519, (2R)-2-{[(5Sa)-5-{3-chloro-2-methyl-4-[2-(4-methylpiperazin-1-yl)ethoxy]phenyl}-6-(prop-1-yn-1-yl)thieno[2,3-d]pyrimidin-4-yl]oxy}-3-phenylpropanoic acid] has an IC50 of 2.3e-08 M. `Cc1c(-c2c(C#CC3CC3)sc3ncnc(OC(Cc4ccccc4)C(=O)O)c23)ccc(OCCN2CCN(C)CC2)c1Cl` [Example 520, (2R)-2-{[(5Sa)-5-{3-chloro-2-methyl-4-[2-(4-methylpiperazin-1-yl)ethoxy]phenyl}-6-(cyclopropylethynyl)thieno[2,3-d]pyrimidin-4-yl]oxy}-3-phenylpropanoic acid] was tested, and the IC50 was 4.1e-08 M. `Cc1c(-c2c(C#N)sc3ncnc(OC(Cc4ccccc4)C(=O)O)c23)ccc(OCCN2CCN(C)CC2)c1Cl` [Example 521, (2R)-2-[((5Sa)-5-{3-chloro-2-methyl-4-[2-(4-methylpiperazin-1-yl)ethoxy]phenyl}-6-cyanothieno[2,3-d]pyrimidin-4-yl)oxy]-3-phenylpropanoic acid] gave an IC50 of 2.4e-07 M. `CC(=O)c1sc2ncnc(OC(Cc3ccccc3)C(=O)O)c2c1-c1ccc(OCCN2CCN(C)CC2)c(Cl)c1C` [Example 522, (2R)-2-[(6-acetyl-(5Sa)-5-{3-chloro-2-methyl-4-[2-(4-methylpiperazin-1-yl)ethoxy]phenyl}thieno[2,3-d]pyrimidin-4-yl)oxy]-3-phenylpropanoic acid] showed an IC50 of 7.5e-08 M. Work on `COc1ccccc1CC(Oc1ncnc2sc(-c3ccc(F)c(F)c3F)c(-c3ccc(OCCN4CCN(C)CC4)c(Cl)c3C)c12)C(=O)O` [Example 537, (2R)-2-{[(5Sa)-5-{3-chloro-2-methyl-4-[2-(4-methylpiperazin-1-yl)ethoxy]phenyl}-6-(2,3,4-trifluorophenyl)thieno[2,3-d]pyrimidin-4-yl]oxy}-3-(2-methoxyphenyl)propanoic acid] yielded an IC50 of 4.3e-08 M. Compound `COc1ccccc1CC(Oc1ncnc2sc(-c3ccc(C(OC)OC)o3)c(-c3ccc(OCCN4CCN(C)CC4)c(Cl)c3C)c12)C(=O)O` [Example 542, (2R)-2-[((5Sa)-5-{3-chloro-2-methyl-4-[2-(4-methylpiperazin-1-yl)ethoxy]phenyl}-6-[5-(dimethoxymethyl)furan-2-yl]thieno[2,3-d]pyrimidin-4-yl)oxy]-3-(2-methoxyphenyl)propanoic acid] has an IC50 of 4.3e-07 M. Work on `COc1ccccc1CC(Oc1ncnc2sc(-c3cccc(Cl)c3)c(-c3ccc(OCCN4CCN(C)CC4)c(Cl)c3C)c12)C(=O)O` [Example 550, (2R)-2-{[(5Sa)-5-{3-chloro-2-methyl-4-[2-(4-methylpiperazin-1-yl)ethoxy]phenyl}-6-(3-chlorophenyl)thieno[2,3-d]pyrimidin-4-yl]oxy}-3-(2-methoxyphenyl)propanoic acid] yielded an IC50 of 4.8e-08 M. With `COc1ccccc1CC(Oc1ncnc2sc(-c3cccc(F)c3)c(-c3ccc(OCCN4CCN(C)CC4)c(Cl)c3C)c12)C(=O)O` [Example 551, (2R)-2-{[(5Sa)-5-{3-chloro-2-methyl-4-[2-(4-methylpiperazin-1-yl)ethoxy]phenyl}-6-(3-fluorophenyl)thieno[2,3-d]pyrimidin-4-yl]oxy}-3-(2-methoxyphenyl)propanoic acid] the IC50 was 2.8e-08 M. `COc1ccccc1CC(Oc1ncnc2sc(-c3cccc(OC(F)(F)F)c3)c(-c3ccc(OCCN4CCN(C)CC4)c(Cl)c3C)c12)C(=O)O` [Example 555, (2R)-2-[((5Sa)-5-{3-chloro-2-methyl-4-[2-(4-methylpiperazin-1-yl)ethoxy]phenyl}-6-[3-(trifluoromethoxy)phenyl]thieno[2,3-d]pyrimidin-4-yl)oxy]-3-(2-methoxyphenyl)propanoic acid] gave an IC50 of 3.9e-07 M. `COc1ccccc1CC(Oc1ncnc2sc(-c3cccc(Oc4ccc(F)cc4)c3)c(-c3ccc(OCCN4CCN(C)CC4)c(Cl)c3C)c12)C(=O)O` [Example 556, (2R)-2-[((5Sa)-5-{3-chloro-2-methyl-4-[2-(4-methylpiperazin-1-yl)ethoxy]phenyl}-6-[3-(4-fluorophenoxy)phenyl]thieno[2,3-d]pyrimidin-4-yl)oxy]-3-(2-methoxyphenyl)propanoic acid] showed an IC50 of 1.2e-08 M. Work on `COc1ccccc1CC(Oc1ncnc2sc(-c3cccc(OC(F)(F)F)c3F)c(-c3ccc(OCCN4CCN(C)CC4)c(Cl)c3C)c12)C(=O)O` [Example 562, (2R)-2-[((5Sa)-5-{3-chloro-2-methyl-4-[2-(4-methylpiperazin-1-yl)ethoxy]phenyl}-6-[2-fluoro-3-(trifluoromethoxy)phenyl]thieno[2,3-d]pyrimidin-4-yl)oxy]-3-(2-methoxyphenyl)propanoic acid] yielded an IC50 of 5.1e-07 M. Work on `COc1ccccc1CC(Oc1ncnc2sc(-c3ccccc3F)c(-c3ccc(OCCN4CCN(C)CC4)c(Cl)c3C)c12)C(=O)O` [Example 566, (2R)-2-{[(5Sa)-5-{3-chloro-2-methyl-4-[2-(4-methylpiperazin-1-yl)ethoxy]phenyl}-6-(2-fluorophenyl)thieno[2,3-d]pyrimidin-4-yl]oxy}-3-(2-methoxyphenyl)propanoic acid] yielded an IC50 of 3e-08 M. `COc1ccccc1CC(Oc1ncnc2sc(-c3cccnc3)c(-c3ccc(OCCN4CCN(C)CC4)c(Cl)c3C)c12)C(=O)O` [Example 567, (2R)-2-{[(5Sa)-5-{3-chloro-2-methyl-4-[2-(4-methylpiperazin-1-yl)ethoxy]phenyl}-6-(pyridin-3-yl)thieno[2,3-d]pyrimidin-4-yl]oxy}-3-(2-methoxyphenyl)propanoic acid] gave an IC50 of 2.1e-08 M. `CC#Cc1sc2ncnc(OC(Cc3ccccc3OC)C(=O)O)c2c1-c1ccc(OCCN2CCN(C)CC2)c(Cl)c1C` [Example 572, (2R)-2-{[(5Sa)-5-{3-chloro-2-methyl-4-[2-(4-methylpiperazin-1-yl)ethoxy]phenyl}-6-(prop-1-yn-1-yl)thieno[2,3-d]pyrimidin-4-yl]oxy}-3-(2-methoxyphenyl)propanoic acid] showed an IC50 of 1.9e-08 M. `COc1ccccc1CC(Oc1ncnc2sc(-c3ccc(Br)o3)c(-c3ccc(OCCN4CCN(C)CC4)c(Cl)c3C)c12)C(=O)O` [Example 577, (2R)-2-{[6-(5-bromofuran-2-yl)-(5Sa)-5-{3-chloro-2-methyl-4-[2-(4-methylpiperazin-1-yl)ethoxy]phenyl}thieno[2,3-d]pyrimidin-4-yl]oxy}-3-(2-methoxyphenyl)propanoic acid] was tested, and the IC50 was 7.6e-09 M. Work on `COC(=N)c1ccc(-c2sc3ncnc(OC(Cc4ccccc4OC)C(=O)O)c3c2-c2ccc(OCCN3CCN(C)CC3)c(Cl)c2C)o1` [Example 580, (2R)-2-[((5Sa)-5-{3-chloro-2-methyl-4-[2-(4-methylpiperazin-1-yl)ethoxy]phenyl}-6-[5-(methoxycarbonoimidoyl)furan-2-yl]thieno[2,3-d]pyrimidin-4-yl)oxy]-3-(2-methoxyphenyl)propanoic acid] yielded an IC50 of 3.7e-08 M. `COc1ccccc1CC(Oc1ncnc2sc(-c3ccc(C(N)=O)o3)c(-c3ccc(OCCN4CCN(C)CC4)c(Cl)c3C)c12)C(=O)O` [Example 581, (2R)-2-{[6-(5-carbamoylfuran-2-yl)-(5Sa)-5-{3-chloro-2-methyl-4-[2-(4-methylpiperazin-1-yl)ethoxy]phenyl}thieno[2,3-d]pyrimidin-4-yl]oxy}-3-(2-methoxyphenyl)propanoic acid] was tested, and the IC50 was 4.2e-07 M. In the case of `COc1ccccc1CC(Oc1ncnc2sc(-c3ccc(C(=O)N(C)C)o3)c(-c3ccc(OCCN4CCN(C)CC4)c(Cl)c3C)c12)C(=O)O` [Example 582, (2R)-2-[((5Sa)-5-{3-chloro-2-methyl-4-[2-(4-methylpiperazin-1-yl)ethoxy]phenyl}-6-[5-(dimethylcarbamoyl)furan-2-yl]thieno[2,3-d]pyrimidin-4-yl)oxy]-3-(2-methoxyphenyl)propanoic acid], the IC50 is reported as 8.4e-08 M. With `COC(=O)c1ccc(-c2sc3ncnc(OC(Cc4ccccc4OC)C(=O)O)c3c2-c2ccc(OCCN3CCN(C)CC3)c(Cl)c2C)o1` [Example 583, (2R)-2-[((5Sa)-5-{3-chloro-2-methyl-4-[2-(4-methylpiperazin-1-yl)ethoxy]phenyl}-6-[5-(methoxycarbonyl)furan-2-yl]thieno[2,3-d]pyrimidin-4-yl)oxy]-3-(2-methoxyphenyl)propanoic acid] the IC50 was 1.1e-07 M.

Same assay, conditions: partial inhibitors; @ 10 uM test compound; 10 µM
For `COc1ccccc1CC(Oc1ncnc2sc(C(=O)N(C)C)c(-c3ccc(OCCN4CCN(C)CC4)c(Cl)c3C)c12)C(=O)O` [Example 574, (2R)-2-{[(5Ra)-5-{3-chloro-2-methyl-4-[2-(4-methylpiperazin-1-yl)ethoxy]phenyl}-6-(dimethylcarbamoyl)thieno[2,3-d]pyrimidin-4-yl]oxy}-3-(2-methoxyphenyl)propanoic acid], the “percentage fluorescence polarisation inhibition, Mcl-1 FP” value was 24.3% @ 10 uM. `COc1ccccc1CC(Oc1ncnc2sc(C(=O)N(C)C)c(-c3ccc(OCCN4CCN(C)CC4)c(Cl)c3C)c12)C(=O)O` [Example 575, (2R)-2-{[(5Sa)-5-{3-chloro-2-methyl-4-[2-(4-methylpiperazin-1-yl)ethoxy]phenyl}-6-(dimethylcarbamoyl)thieno[2,3-d]pyrimidin-4-yl]oxy}-3-(2-methoxyphenyl)propanoic acid] was tested, and the “percentage fluorescence polarisation inhibition, Mcl-1 FP” value was 46.8% @ 10 uM.
